Reference: PubChem BioAssay (NCI)
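Five concentrations, 48 hours, 96-well plates. The concentration for 50% growth inhibition is given as GI50. TGI denotes the concentration required for complete inhibition of growth.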

Assays:
Experiment in all cases: NCI-60 cell line screen, 48 h; in the data active means GI50 below about 0.43 µM; inactive means the rest
[1] = test system: 786-0 renal
[2] = test system: A498 renal
[3] = test system: A549 NSCLC
[4] = test system: ACHN renal
[5] = test system: BT-549 breast
[6] = test system: CAKI-1 renal
[7] = test system: CCRF-CEM leukemia
[8] = test system: COLO 205 colon
[9] = test system: DU-145 prostate
[10] = test system: EKVX NSCLC
[11] = test system: HCC-2998 colon
[12] = test system: HCT-116 colon
[13] = test system: HCT-15 colon
[14] = test system: HL-60(TB) leukemia
[15] = test system: HOP-62 NSCLC
[16] = test system: HOP-92 NSCLC
[17] = test system: HS 578T breast
[18] = test system: HT29 colon
[19] = test system: IGROV1 ovarian
[20] = test system: K-562 leukemia
[21] = test system: KM12 colon
[22] = test system: LOX IMVI melanoma
[23] = test system: M14 melanoma
[24] = test system: MALME-3M melanoma
[25] = test system: MCF7 breast
[26] = test system: MDA-MB-231 breast
[27] = test system: MDA-MB-435
[28] = test system: MOLT-4 leukemia
[29] = test system: NCI-H226 lung
[30] = test system: NCI-H23 lung
[31] = test system: NCI-H460 lung
[32] = test system: NCI-H522 lung
[33] = test system: NCI/ADR-RES ovarian
[34] = test system: OVCAR-3 ovarian
[35] = test system: OVCAR-4 ovarian
[36] = test system: OVCAR-5 ovarian
[37] = test system: OVCAR-8 ovarian
[38] = test system: PC-3 prostate
[39] = test system: RPMI-8226 leukemia
[40] = test system: RXF 393 renal
[41] = test system: SF-268 CNS
[42] = test system: SF-295 CNS
[43] = test system: SF-539 CNS
[44] = test system: SK-MEL-2 melanoma
[45] = test system: SK-MEL-28 melanoma
[46] = test system: SK-MEL-5 melanoma
[47] = test system: SK-OV-3 ovarian
[48] = test system: SN12C renal
[49] = test system: SNB-19 CNS
[50] = test system: SNB-75 CNS
[51] = test system: SR leukemia
[52] = test system: SW-620 colon
[53] = test system: T-47D breast
[54] = test system: TK-10 renal
[55] = test system: U251 CNS
[56] = test system: UACC-257 melanoma
[57] = test system: UACC-62 melanoma
[58] = test system: UO-31 renal

COC(=O)CCC1CCC(c2cc(F)ccc2F)(S(=O)(=O)c2ccc(Cl)cc2)CC1 (stereo unspecified)
> 100 µM: TGI [1] | TGI [2] | TGI [3] | TGI [4] | TGI [5] | TGI [6] | TGI [7] | TGI [8] | TGI [9] | TGI [10] | TGI [11] | TGI [12] | TGI [13] | TGI [14] | TGI [15] | TGI [16] | TGI [17] | TGI [18] | TGI [19] | TGI [20] | TGI [21] | TGI [22] | TGI [23] | TGI [24] | TGI [25] | TGI [26] | TGI [27] | TGI [28] | TGI [29] | TGI [30] | TGI [31] | TGI [32] | TGI [33] | TGI [34] | TGI [35] | TGI [36] | TGI [37] | TGI [38] | TGI [39] | TGI [40] | TGI [41] | TGI [42] | TGI [43] | TGI [44] | TGI [45] | TGI [46] | TGI [47] | TGI [48] | TGI [49] | TGI [50] | TGI [51] | TGI [52] | TGI [53] | TGI [54] | TGI [55] | TGI [56] | TGI [57] | TGI [58]
inactive: GI50 [1] > 100 µM | GI50 [2] 40.4 µM | GI50 [3] 64.4 µM | GI50 [4] > 100 µM | GI50 [5] 70.6 µM | GI50 [6] 6 µM | GI50 [7] > 100 µM | GI50 [8] > 100 µM | GI50 [9] > 100 µM | GI50 [10] 61.2 µM | GI50 [11] > 100 µM | GI50 [12] 38.2 µM | GI50 [13] > 100 µM | GI50 [14] 45.3 µM | GI50 [15] > 100 µM | GI50 [16] 15.4 µM | GI50 [17] > 100 µM | GI50 [18] 82.2 µM | GI50 [19] > 100 µM | GI50 [20] > 100 µM | GI50 [21] 62.1 µM | GI50 [22] 91.5 µM | GI50 [23] 55.4 µM | GI50 [24] 67.1 µM | GI50 [25] 70.2 µM | GI50 [26] > 100 µM | GI50 [27] 88.5 µM | GI50 [28] 49.8 µM | GI50 [29] 86.8 µM | GI50 [30] 42.5 µM | GI50 [31] 52.1 µM | GI50 [32] 62.4 µM | GI50 [33] > 100 µM | GI50 [34] 83.7 µM | GI50 [35] 45.5 µM | GI50 [36] > 100 µM | GI50 [37] > 100 µM | GI50 [38] 30.7 µM | GI50 [39] 41.9 µM | GI50 [40] 55.4 µM | GI50 [41] > 100 µM | GI50 [42] > 100 µM | GI50 [43] > 100 µM | GI50 [44] 62 µM | GI50 [45] > 100 µM | GI50 [46] 28.4 µM | GI50 [47] > 100 µM | GI50 [48] > 100 µM | GI50 [49] > 100 µM | GI50 [50] > 100 µM | GI50 [51] > 100 µM | GI50 [52] > 100 µM | GI50 [53] 39.3 µM | GI50 [54] > 100 µM | GI50 [55] > 100 µM | GI50 [56] 48.9 µM | GI50 [57] 69.4 µM | GI50 [58] 28 µM
